Where a name gives a salt, the structure may show the parent alone.
Molecular target: T1, human D3 dopamine receptors (Homo sapiens, UniProt P35462)
T1 construct: expressed in transfected cells; host or cells: CHO cells
Experiment: [125I] iodosulpride displacement binding to cloned human D3 dopamine receptors expressed in CHO cells
Conditions: displacement of 0.1 nM [125I] iodosulpride, CHO cell membranes, 30 min at 37° C.; read-out: IC50 values at the human D3 receptor
Method: The inhibition constants (Ki) of test compounds for displacement of [^125 I] iodosulpride binding to human D2 and D3 dopamine receptors expressed in CHO cells have been determined. […] Cultures were grown as monolayers or in suspension in standard cell culture media. Cells were recovered by scraping (from monolayers) or by centrifugation (from suspension cultures), and were washed two or three times by suspension in phosphate buffered saline followed by collection by centrifugation. Cell pellets were stored frozen at -40° C. Crude cell membranes were prepared by homogenisation followed by high-speed centrifugation, and characterisation of cloned receptors achieved by radioligand binding.
Cell pellets were gently thawed at room temperature, and resuspended in about 20 volumes of ice-cold 50 mM Tris salts (pH 7.4@37° C.), 20 mM EDTA, 0.2M sucrose. The suspension was homogenised using an Ultra-Turrax at full speed for 15 sec. The homogenate was centrifuged at 18,000 r.p.m for 20 min at 4° C. in a Sorvall RC5C centrifuge. […] The final pellet was resuspended in 50 mM Tris salts (pH 7.4@37° C.), and the protein content determined using bovine serum albumin as a standard (Bradford, M. M. (1976) Anal. Biochem. 72, 248-254). […]
Competition curves were analysed simultaneously whenever possible using non-linear least-squares fitting procedures, capable of fitting one, two or three site models.

T1 sequence (P35462 whole entry): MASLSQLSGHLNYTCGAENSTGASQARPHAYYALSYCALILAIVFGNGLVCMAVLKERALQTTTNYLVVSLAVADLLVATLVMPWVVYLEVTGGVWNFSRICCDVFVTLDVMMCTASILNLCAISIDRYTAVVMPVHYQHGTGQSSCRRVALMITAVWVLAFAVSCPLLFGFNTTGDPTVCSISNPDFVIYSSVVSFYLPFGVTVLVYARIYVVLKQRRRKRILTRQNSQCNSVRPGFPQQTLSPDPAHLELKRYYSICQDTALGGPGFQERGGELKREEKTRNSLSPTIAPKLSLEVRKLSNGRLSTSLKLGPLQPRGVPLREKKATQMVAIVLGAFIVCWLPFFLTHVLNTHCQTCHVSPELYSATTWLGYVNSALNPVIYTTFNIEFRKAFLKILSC

Row | SMILES | IC50
1 | CCN(Cc1ccc(-c2cc(S(=O)(=O)CC)ccc2OC)[nH]1)C1CCCc2ccccc21 (centres unmarked) [Example 1, 2-(5-Ethylsulfonyl-2-methoxyphenyl)-5-[N-ethyl-N-1-(1,2,3,4-tetrahydronaphthyl)aminomethyl]-1H-pyrrole hydrochloride] | < 5 nM
2 | CCN(Cc1ccc(-c2cc(S(=O)(=O)CC)ccc2OC)[nH]1)C1CCc2ccccc21 (centres unmarked) [Example 2, 2-(5-Ethylsulfonyl-2-methoxyphenyl)-5-[N-ethyl-N-1-(indanyl)aminomethyl]-1H-pyrrole, hydrochloride] | < 5 nM
